Assay [1] relates to human CD4+ T cells activated under Th17 polarizing conditions. Briefly: In vitro human Th17 differentiation. The class given is cell-based. Particulars: 500 ng/ml. The method, then: In vitro human T cell differentiation. For Th17 differentiation, naive CD45RA+ CD4+ T cells were isolated from PBMCs with magnetic beads (Naive Human CD4+ T Cell Isolation Kit II, Miltenyi Biotec) and seeded at a density of 5×10^5 cells/ml in 24-well plates coated with anti-CD3 and (2 μg/ml) and soluble anti-CD28 and cultured in the presence of the following cytokines IL-1β (25 ng/ml), IL-6 (50 ng/ml), and TGF-β1 (2 ng/ml) and neutralizing antibodies to IFN-g ([…]) and IL-4 (10 microgram/ml). Alternatively, Th17 cells were differentiated by using IL-1β (25 ng/ml), IL-6 (50 ng/ml), and IL-23 (50 ng/ml) and neutralizing antibodies to IFN-g ([…]) and IL-4 (10 microgram/ml). For Th1 differentiation naïve CD4+T cells are cultured in the presence of IL-12 (20 ng/ml) and anti-IL-4 (10 μg/ml).
Secreted cytokines were measured in tissue culture supernatants after 72-96 hs by enzyme-linked immunosorbent assay as previously described (Farez et al., 2009).

Assay [2] concerns CD4+ T cells. As to the kind of experiment: Flow cytometry of T cell subsets from spleen, lymph nodes and CNS of EAE mice. The class given is in vivo, C57BL/6 wild-type mice. Particulars: melatonin 5 mg/kg daily. The method, then: For intracellular cytokine staining, cells were stimulated for 4 h at 37° C. with phorbol 12-myristate 13-acetate (50 ng/ml; Sigma), ionomycin (1 μg/ml; Sigma) and monensin (GolgiStop; 1 μg/ml; BD Biosciences). After being stained for surface markers, cells were fixed and made permeable according to the manufacturer's instructions (BD Biosciences). All antibodies against cytokines were from Biolegend. All experiments were started at the same time (8-9 am). Data were collected with a LSR II or FACSAria (BD Biosciences), then were analyzed with FlowJo software (Treestar). CNS infiltrates were isolated as described (Mascanfroni et al., 2013). Mice were perfused with ice-cold PBS. The brain and spinal cord were removed and incubated in PBS containing collagenase type III (2 mg/ml; Worthington) and DNase (20 units/ml; Sigma-Aldrich). Tissues were then homogenized and loaded on a 30%-37%-70% Percoll gradient for enrichment of CNS infiltrates. Based on our epidemiological findings, we studied the effects of melatonin on CNS inflammation using the experimental autoimmune […] (EAE) model of MS. Naïve C57BL/6 wild-type mice were immunized with MOG35-55 and treated daily with melatonin (5 mg/kg, intraperitoneally) or vehicle. Melatonin administration ameliorated EAE clinical symptoms (FIG. 2a, Table 2 and FIG. 7a).
On the technique in general: A flow cytometer gives signals particle by particle.

Assay [3] has as its system Erk1/2. As to the kind of experiment: Signal transduction profiling using reverse protein arrays. It is filed as cell-based, mouse. Particulars: T cells; MTNR1A-dependent.
Procedure: Cells activated under polarizing conditions were treated with vehicle (DMSO 0.001%), melatonin (2-10 ng/mL), agomelatine (2-10 ng/mL) and CGP-52608 (2-10 ng/mL) during 72-96 hs and lysed. Lysates were transferred to 384-well polypropylene plates and were spotted onto Super Epoxi slides (Telechem) with a robotic microarrayer (Genetix) fitted with solid spotting pins.
Assay [4] deals with Splenocytes. Briefly: Recall response to MOG35-55 of splenocytes from melatonin-treated mice. It is filed as in vivo. The method, then: Secreted cytokines were measured in tissue culture supernatants after 72-96 hs by enzyme-linked immunosorbent assay as previously described (Farez et al., 2009). […] The cells were pulsed with [3H]thymidine (1 μCi/well) for the final 24 h. The frequency of T cells producing IL-17 (eBioscience), IFN-γ (BioLegend) or IL-10 (BD Pharmingen) and Foxp3+ T cells (eBioscience) was assessed by flow cytometry. For CFSE-based proliferation assay, CD4+ T cells were labeled with 1 μM CFSE (carboxyfluorescein diacetate succinimidyl ester; Molecular Probes). Data were acquired on an […] (BD Biosciences) or MacsQuants (Miltenyi) and analyzed with FlowJo software (TreeStar). To further characterize the effects of melatonin on the encephalitogenic T-cell response, we analyzed the recall response to MOG35-55. […] Thus, melatonin arrests the encephalitogenic Th17 cell response.

For assay [5], the system named is CD4+ T cells. As to the kind of experiment: Co-incubation of sorted CD4+ T cells with treatment-switched dendritic cells. The class given is in vivo. Particulars: CD4+ T cells from melatonin-treated mice co-incubated with splenic DCs from control mice. As for the experimental part:
To investigate if melatonin acts directly on T cells or whether it controls the T-cell response indirectly through its effects on antigen presenting cells, we co-incubated sorted CD4^+ T cells from melatonin-treated or control mice with treatment-switched dendritic cells (DCs).

Regarding `COc1ccc2[nH]cc(CCNC(C)=O)c2c1` [Melatonin, N-Acetyl-5-methoxytryptamine], the “production of IL-17, RORC and IL17A expression” value in assay [1] was “reduced”. Also, the IL10 expression result in assay [1] (Th17 polarizing conditions) was “increased”. In assay [2], the “IL-10 secreting CD4+ T cells” value is listed as “increase”; the “number and frequency of Th17 cells in spleen, lymph nodes and CNS” value was “decreased number and frequency”; the “number or frequency of other T cell subsets, B cells, γδ T cells or innate lymphoid cells (ILCs)” value is on record as “no significant changes”. Further, the “activation of Erk1/2” value in assay [3] is “increase”. Also, in assay [4], the “proliferative response to MOG35-55” value was “diminished”. For the same molecule, in assay [4] (recall to MOG35-55), the IFN-γ production result is listed as “no significant effects”, the IL-10 production entry is listed as “increased” and the IL-17 production entry was “reduced”. Moreover, in assay [5], the IL-10 production entry is “increased”; the “proliferation and IL-17 secretion” value is reported as “decreased”.

These data come from patent US10555919B2, “Melatonin in autoimmune disease” (The Brigham and Women's Hopsital, Inc., priority 2014, dated 2020).
